Data on 31 compounds can be found in ChEMBL document CHEMBL2440045, “The synthesis and anticancer activity of analogs of the indole phytoalexins brassinin, 1-methoxyspirobrassinol methyl ether and cyclobrassinin” (Bioorg Med Chem, 2013).

Bounds are passed on as bounds.

What all share (format): functional, cell-based
Assay [1] deals with CCRF-CEM. The assay is described as follows: Antiproliferative activity against human CCRF-CEM cells assessed as cell viability after 72 hrs by MTT assay.
Assay [2] concerns Jurkat. The assay is described as follows: Antiproliferative activity against human Jurkat cells assessed as cell viability after 72 hrs by MTT assay.
Assay [3] has as its system HeLa. The assay is described as follows: Antiproliferative activity against human HeLa cells assessed as cell viability after 72 hrs by MTT assay.
Assay [4] concerns A549. The assay is described as follows: Antiproliferative activity against human A549 cells assessed as cell viability after 72 hrs by MTT assay. To be noted: A549, 72 h.
Assay [5] has as its system MDA-MB-231. The assay is described as follows: Antiproliferative activity against human MDA-MB-231 cells assessed as cell viability after 72 hrs by MTT assay. The note with it: MDA-MB-231, 72 h.
Assay [6] deals with MCF7. The assay is described as follows: Antiproliferative activity against human MCF7 cells assessed as cell viability after 72 hrs by MTT assay. The note with it: MCF7, 72 h.

Take `CO[C@@H]1N(C(=O)OC(C)(C)C)c2ccccc2[C@@]12CN=C(Nc1ccc(Cl)cc1)S2` (racemic): the IC50 was 19 µM in assay [1]; 7 µM in assay [2]; 10 µM in assay [3]; 16.5 µM in assay [4]; 20.5 µM in assay [5]; 16 µM in assay [6].
For the compound `CO[C@H]1N(C(=O)OC(C)(C)C)c2ccccc2[C@@]12CN=C(Nc1ccc(F)cc1)S2` (racemic), the concentration for half-maximal inhibition (IC50) in assay [1] worked out at 27 µM; in assay [2] it was 19 µM; in assay [3], 29 µM; in assay [4], 30 µM; in assay [5], 30 µM; in assay [6], 30 µM.
As for `CO[C@@H]1N(C(=O)OC(C)(C)C)c2ccccc2[C@@]12CN=C(N1CCCCC1)S2` (racemic), the IC50 was 30.7 µM in assay [1]; 33.1 µM in assay [2]; 62.3 µM in assay [3]; 55.4 µM in assay [4]; 69 µM in assay [5]; 64.4 µM in assay [6].
Consider `CN(C1=NC[C@]2(S1)c1ccccc1N(C(=O)OC(C)(C)C)[C@H]2O)c1ccccc1` (racemic), for which the IC50 in assay [1] is 22.8 µM; in assay [2] it was 21.6 µM; in assay [3], 22.3 µM; in assay [4], 28.7 µM; in assay [5] it was 32.4 µM; in assay [6] it was 30.3 µM.
With `CN(C(=S)NCc1cn(C(=O)OC(C)(C)C)c2ccccc12)c1ccccc1`, the IC50 in assay [1], in assay [2], in assay [3], in assay [4], in assay [5] and in assay [6] was over 100 µM each time.
For the compound `CO[C@H]1N(C(=O)OC(C)(C)C)c2ccccc2[C@@]12CN=C(N1CCOCC1)S2` (racemic), the IC50 in assay [1] was 51.4 µM; in assay [2], 31.3 µM; in assay [3], 55.5 µM; in assay [4] it was over 100 µM; in assay [5] it was 69.3 µM; in assay [6] it was 70.1 µM.
Consider `CO[C@H]1N(C(=O)OC(C)(C)C)c2ccccc2[C@@]12CN=C(NC1CCCCC1)S2` (racemic), for which the IC50 turned out to be 5.1 µM in assay [1]; 5.2 µM in assay [2]; 32 µM in assay [3]; 27.7 µM in assay [4]; 26.1 µM in assay [5]; 27.5 µM in assay [6].
Consider `CO[C@@H]1N(C(=O)OC(C)(C)C)c2ccccc2[C@@]12CN=C(SC)S2` (racemic), for which the IC50 in assay [1] is 41.9 µM; in assay [2], 43.4 µM; in assay [3], 77.6 µM; in assay [4], 96.3 µM; in assay [5], 97.7 µM; in assay [6], 100 µM.
With `CN(C1=NCc2c([nH]c3ccccc23)S1)c1ccccc1`, the IC50 is 28 µM in assay [1]; 75.5 µM in assay [2]; 71.7 µM in assay [3]; 91.5 µM in assay [4]; 42.4 µM in assay [5]; 95 µM in assay [6].
As to `CO[C@@H]1N(C(=O)OC(C)(C)C)c2ccccc2[C@@]12CN=C(N(C)c1ccccc1)S2` (racemic), the IC50 in assay [1] was 26.6 µM; in assay [2], 26 µM; in assay [3] it was 32 µM; in assay [4], 28.7 µM; in assay [5], 27.5 µM; in assay [6], 28 µM.
As to `CC(C)(C)OC(=O)n1cc(CNC(=S)Nc2ccc([N+](=O)[O-])cc2)c2ccccc21`, the 50% inhibitory concentration (IC50) in assay [1] is 3.8 µM; in assay [2] it was 3 µM; in assay [3], 14 µM; in assay [4] it was 11.5 µM; in assay [5] it was 8.6 µM; in assay [6], 9.3 µM.
For the compound `CC(C)(C)OC(=O)n1cc(CNC(=S)Nc2ccc(Cl)cc2)c2ccccc21`, the IC50 in assay [1] was determined as 3.8 µM; in assay [2], 4.2 µM; in assay [3] it was 4 µM; in assay [4], 7.6 µM; in assay [5], 17.1 µM; in assay [6], 8.6 µM.
As for `Cc1ccc(NC(=S)NCc2cn(C(=O)OC(C)(C)C)c3ccccc23)cc1`, the IC50 in assay [1] came out at 16 µM; in assay [2], 20 µM; in assay [3] it was 29 µM; in assay [4] it was 31.3 µM; in assay [5], 37.4 µM; in assay [6] it was 30 µM.
Regarding `CC(C)(C)OC(=O)N1c2ccccc2[C@@]2(CN=C(Nc3ccccc3)S2)[C@H]1O` (racemic), the IC50 turned out to be 33 µM in assay [1]; 47.7 µM in assay [2]; 72.4 µM in assay [3]; 74 µM in assay [4]; 64 µM in assay [5]; 27.4 µM in assay [6].
As for `CO[C@H]1N(C(=O)OC(C)(C)C)c2ccccc2[C@@]12CN=C(N(C)c1ccccc1)S2` (racemic), the IC50 in assay [1] worked out at 18.3 µM; in assay [2], 5.9 µM; in assay [3], 8.2 µM; in assay [5] it was 31.7 µM; in assay [6] it was 1.5 µM.
In the case of `CO[C@@H]1N(C(=O)OC(C)(C)C)c2ccccc2[C@@]12CN=C(Nc1ccc(Br)cc1)S2` (racemic), the IC50 is 50 µM in assay [1]; 30 µM in assay [2]; 65.5 µM in assay [3]; 76 µM in assay [4]; over 100 µM in assay [5]; 78 µM in assay [6].
Regarding `c1ccc2c3c([nH]c2c1)SC(N1CCOCC1)=NC3`, the half-inhibitory concentration (IC50) is 5.9 µM in assay [1]; 8.7 µM in assay [2]; 72.5 µM in assay [3]; 62.9 µM in assay [4]; 33.1 µM in assay [5]; 55.1 µM in assay [6].
For the compound `CO[C@H]1N(C(=O)OC(C)(C)C)c2ccccc2[C@@]12CN=C(Nc1ccc(Cl)cc1)S2` (racemic), the IC50 was 26.5 µM in assay [1]; 23.5 µM in assay [2]; 20.8 µM in assay [3]; 26 µM in assay [4]; 42 µM in assay [5]; 36.5 µM in assay [6].
In the case of `CO[C@@H]1N(C(=O)OC(C)(C)C)c2ccccc2[C@@]12CN=C(NC1CCCCC1)S2` (racemic), the half-maximal inhibitory concentration (IC50) in assay [1] was found to be 29.1 µM; in assay [2], 27 µM; in assay [3], 36.7 µM; in assay [4], 38 µM; in assay [5], 41.4 µM; in assay [6] it was 37.2 µM.
`CO[C@@H]1N(C(=O)OC(C)(C)C)c2ccccc2[C@@]12CN=C(Nc1ccc(F)cc1)S2` (racemic): the IC50 in assay [1] came to 14.5 µM; in assay [2], 15 µM; in assay [3], 27.5 µM; in assay [4], 34 µM; in assay [5], 32.5 µM; in assay [6], 30.5 µM.
On to `COc1ccc(NC2=NC[C@]3(S2)c2ccccc2N(C(=O)OC(C)(C)C)[C@@H]3OC)cc1` (racemic), for which the IC50 in assay [1] was determined as 24.7 µM; in assay [2] it was 25 µM; in assay [3], 25 µM; in assay [4], 31.3 µM; in assay [5] it was 38.3 µM; in assay [6], 31.2 µM.
Consider `CC(C)(C)OC(=O)n1cc(CNC(=S)Nc2ccc(F)cc2)c2ccccc21`, for which the IC50 in assay [1] was 12 µM; in assay [2], 19.8 µM; in assay [3], 10.7 µM; in assay [4] it was 24.3 µM; in assay [5] it was 22.2 µM; in assay [6] it was 27.6 µM.
For `CC(C)(C)OC(=O)n1cc(CNC(=S)Nc2ccc(Br)cc2)c2ccccc21`, the IC50 in assay [1] is 3.8 µM; in assay [2], 4.3 µM; in assay [3], 4.5 µM; in assay [4], 6.8 µM; in assay [5], 13 µM; in assay [6], 8.5 µM.
For the compound `CSC1=NC[C@]2(S1)c1ccccc1N(C(=O)OC(C)(C)C)[C@@H]2O` (racemic), the IC50 in assay [1] came out at 30.6 µM; in assay [2] it was 34 µM; in assay [3] it was 78 µM; in assay [4] it was 100 µM; in assay [5] it was 82.8 µM; in assay [6] it was 100 µM.
For the compound `CO[C@@H]1N(C(=O)OC(C)(C)C)c2ccccc2[C@@]12CN=C(Nc1ccc(C)cc1)S2` (racemic), the IC50 came to 19 µM in assay [1]; 9 µM in assay [2]; 23 µM in assay [3]; 30.5 µM in assay [4]; 35.5 µM in assay [5]; 31.5 µM in assay [6].
As to `CC(C)(C)OC(=O)n1cc(CNC(=S)Nc2ccc(C(F)(F)F)cc2)c2ccccc21`, the IC50 in assay [1] was 3.5 µM; in assay [2] it was 3 µM; in assay [3] it was 4 µM; in assay [4], 4 µM; in assay [5] it was 4.5 µM; in assay [6], 3.5 µM.
Turning to `c1ccc2c3c([nH]c2c1)SC(N1CCCCC1)=NC3`, the IC50 came out at 6.6 µM in assay [1]; 7.3 µM in assay [2]; 40.7 µM in assay [3]; 42.2 µM in assay [4]; 35.5 µM in assay [5]; 37.1 µM in assay [6].
`CO[C@H]1N(C(=O)OC(C)(C)C)c2ccccc2[C@@]12CN=C(Nc1ccccc1)S2` (racemic): the IC50 came to 12.2 µM in assay [1]; 10 µM in assay [2]; 31.7 µM in assay [3]; 29.2 µM in assay [4]; 40.3 µM in assay [5]; 6.2 µM in assay [6].
Regarding `CO[C@H]1N(C(=O)OC(C)(C)C)c2ccccc2[C@@]12CN=C(N1CCCCC1)S2` (racemic), the IC50 in assay [1] is 26.1 µM; in assay [2], 24.9 µM; in assay [3], 54.9 µM; in assay [4] it was 54.2 µM; in assay [5], 61.3 µM; in assay [6], 52.6 µM.
`CO[C@@H]1N(C(=O)OC(C)(C)C)c2ccccc2[C@@]12CN=C(Nc1ccc(C(F)(F)F)cc1)S2` (racemic): the IC50 in assay [1] came to 6.7 µM; in assay [2], 5.6 µM; in assay [3], 11.3 µM; in assay [4] it was 17.9 µM; in assay [5] it was 21.3 µM; in assay [6], 11.1 µM.
For the compound `CO[C@@H]1N(OC)c2ccccc2[C@@]12CN=C(SC)S2` (racemic), the 50% inhibitory concentration (IC50) is 44 µM in assay [2] and 65 µM in assay [6].
